Measured values reported in patent US7858044B2, “Multi-well plate providing a high-density storage and assay platform” (Nexus Biosystems, Inc., priority 2003, dated 2010).

Target: recombinant human CYP 3A4 (Homo sapiens, UniProt P08684)
Assay: CYP 3A4 isozyme inhibition screen with fluorogenic substrate BOMR in 3456-well plate
Conditions: concentration series

Chain of recombinant human CYP 3A4 (P08684 whole entry): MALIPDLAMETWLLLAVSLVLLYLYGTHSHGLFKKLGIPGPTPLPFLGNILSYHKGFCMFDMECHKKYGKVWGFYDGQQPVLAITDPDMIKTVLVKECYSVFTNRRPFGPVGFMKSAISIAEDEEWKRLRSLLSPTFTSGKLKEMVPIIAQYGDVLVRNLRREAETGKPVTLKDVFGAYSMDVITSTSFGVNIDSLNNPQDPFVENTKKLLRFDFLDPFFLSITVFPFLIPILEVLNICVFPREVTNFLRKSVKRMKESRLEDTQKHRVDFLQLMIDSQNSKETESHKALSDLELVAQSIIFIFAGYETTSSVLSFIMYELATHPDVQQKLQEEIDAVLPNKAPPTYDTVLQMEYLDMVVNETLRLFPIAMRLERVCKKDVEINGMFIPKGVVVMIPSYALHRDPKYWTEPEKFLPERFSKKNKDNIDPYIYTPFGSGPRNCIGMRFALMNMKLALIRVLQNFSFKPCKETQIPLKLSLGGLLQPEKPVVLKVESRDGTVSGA

SMILES: C[C@]12CC[C@H]3[C@@H](CCC4=CC(=O)CC[C@@]43C)[C@@H]1CC[C@@H]2O [testosterone]
- Potentiation of CYP 3A4 isozyme: Potentiation
